Measurements from ChEMBL document CHEMBL1201862, “PubChem BioAssay data set” (2004).
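Five concentrations, 48 hours, 96-well plates. GI50 = concentration required for 50% inhibition of growth.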 Calls of active or inactive are those of the source. Rule as the data show it: active = GI50 up to about 1.1 µM and inactive = higher.

Key:
Experiment in all cases: NCI-60 cell line screen, 48 h
OVCAR-3 = tested on: OVCAR-3
SF-295 = tested on: SF-295
NCI-H23 = tested on: NCI-H23
CCRF-CEM = tested on: CCRF-CEM
PC-3 = tested on: PC-3
U-251 = tested on: U-251
DU-145 = tested on: DU-145
HOP-92 = tested on: HOP-92
HL-60 = tested on: HL-60
HCT-15 = tested on: HCT-15
K562 = tested on: K562
SK-MEL-2 = tested on: SK-MEL-2
MDA-N = tested on: MDA-N
MDA-MB-435 = tested on: MDA-MB-435
MOLT-4 = tested on: MOLT-4
SK-OV-3 = tested on: SK-OV-3
ACHN = tested on: ACHN
T47D = tested on: T47D
786-0 = tested on: 786-0
OVCAR-5 = tested on: OVCAR-5
TK-10 = tested on: TK-10
UO-31 = tested on: UO-31
KM12 = tested on: KM12
RXF 393 = tested on: RXF 393
UACC-257 = tested on: UACC-257
A498 = tested on: A498
MDA-MB-231 = tested on: MDA-MB-231
SF-539 = tested on: SF-539
NCI-H226 = tested on: NCI-H226
COLO 205 = tested on: COLO 205
SNB-19 = tested on: SNB-19
NCI-H460 = tested on: NCI-H460
M14 = tested on: M14
OVCAR-8 = tested on: OVCAR-8
OVCAR-4 = tested on: OVCAR-4
HCT-116 = tested on: HCT-116
SNB-75 = tested on: SNB-75
LOX IMVI = tested on: LOX IMVI
SK-MEL-28 = tested on: SK-MEL-28
EKVX = tested on: EKVX
RPMI-8226 = tested on: RPMI-8226
Malme-3M = tested on: Malme-3M
A549 = tested on: A549
SK-MEL-5 = tested on: SK-MEL-5
NCI/ADR-RES = tested on: NCI/ADR-RES
SF-268 = tested on: SF-268
CAKI-1 = tested on: CAKI-1
SN12C = tested on: SN12C
NCI-H522 = tested on: NCI-H522
BT-549 = tested on: BT-549
HT-29 = tested on: HT-29
SW-620 = tested on: SW-620
UACC-62 = tested on: UACC-62

For O=C1/C(=C2/CCCN2)C(c2ccc[nH]2)=NN1c1ccccc1, the GI50 (OVCAR-3) was > 100 µM (inactive), the GI50 (SF-295) was > 100 µM (inactive) and the GI50 (NCI-H23) was > 100 µM (inactive). For the same compound, the GI50 (CCRF-CEM) was 1.75 µM (inactive), the GI50 (PC-3) was > 100 µM (inactive) and the GI50 (U-251) was > 100 µM (inactive). For the same compound, the GI50 (DU-145) was > 100 µM (inactive), the GI50 (HOP-92) was > 100 µM (inactive) and the GI50 (HL-60) was > 100 µM (inactive). For the same compound, the GI50 (HCT-15) was > 100 µM, the GI50 (K562) was > 100 µM (inactive) and the GI50 (SK-MEL-2) was > 100 µM (inactive). The GI50 (MDA-N) was > 100 µM (inactive), the GI50 (MDA-MB-435) was > 100 µM (inactive) and the GI50 (MOLT-4) was > 100 µM (inactive). For the same compound, the GI50 (SK-OV-3) was > 100 µM (inactive), the GI50 (ACHN) was > 100 µM (inactive) and the GI50 (T47D) was > 100 µM (inactive). The GI50 (786-0) was > 100 µM (inactive), the GI50 (OVCAR-5) was > 100 µM (inactive) and the GI50 (TK-10) was > 100 µM (inactive). For the same compound, the GI50 (UO-31) was > 100 µM (inactive), the GI50 (KM12) was > 100 µM (inactive) and the GI50 (RXF 393) was > 100 µM (inactive). The GI50 (UACC-257) was > 100 µM (inactive), the GI50 (A498) was > 100 µM (inactive) and the GI50 (MDA-MB-231) was > 100 µM (inactive). For the same compound, the GI50 (SF-539) was > 100 µM (inactive), the GI50 (NCI-H226) was > 100 µM (inactive) and the GI50 (COLO 205) was > 100 µM (inactive). For the same compound, the GI50 (SNB-19) was > 100 µM (inactive), the GI50 (NCI-H460) was > 100 µM (inactive) and the GI50 (M14) was > 100 µM (inactive). For the same compound, the GI50 (OVCAR-8) was > 100 µM (inactive), the GI50 (OVCAR-4) was > 100 µM (inactive) and the GI50 (HCT-116) was > 100 µM (inactive). The GI50 (SNB-75) was > 100 µM (inactive), the GI50 (LOX IMVI) was > 100 µM (inactive) and the GI50 (SK-MEL-28) was > 100 µM (inactive). For the same compound, the GI50 (EKVX) was > 100 µM (inactive), the GI50 (RPMI-8226) was > 100 µM (inactive) and the GI50 (Malme-3M) was > 100 µM (inactive). For the same compound, the GI50 (A549) was > 100 µM (inactive), the GI50 (SK-MEL-5) was > 100 µM (inactive) and the GI50 (NCI/ADR-RES) was > 100 µM (inactive). For the same compound, the GI50 (SF-268) was > 100 µM (inactive), the GI50 (CAKI-1) was > 100 µM (inactive) and the GI50 (SN12C) was > 100 µM (inactive). For the same compound, the GI50 (NCI-H522) was > 100 µM (inactive), the GI50 (BT-549) was > 100 µM (inactive) and the GI50 (HT-29) was > 100 µM (inactive). For the same compound, the GI50 (SW-620) was > 100 µM (inactive) and the GI50 (UACC-62) was > 100 µM (inactive).
